In this experiment the test system is MV-4-11 cells. Kind of experiment: Gene expression microarray analysis (Affymetrix PrimeView) and GSEA. To be noted: MV-4-11 cells, 48 hours. Format: cell-based, human. Set-up: RFU PODN (11730768_x_at) / Fold change /veh PODN (11730768_x_at) / RFU LINC00158 (11744669_a_at) / Fold change /veh LINC00158 (11744669_a_at) / RFU DUSP10 (11751237_a_at) / Fold change /veh DUSP10 (11751237_a_at) / RFU ID3 (11757404_x_at) / Fold change /veh ID3 (11757404_x_at) / RFU PLEKHG5 (11737974_s_at) / Fold change /veh PLEKHG5 (11737974_s_at) / RFU LRRC4B (11730491_at) / Fold change /veh LRRC4B (11730491_at) / RFU GIMAP4 (11747438_a_at) / Fold change /veh GIMAP4 (11747438_a_at) / RFU KRT8 (11758183_x_at) / Fold change /veh KRT8 (11758183_x_at) / RFU CNN1 (11734310_a_at) / Fold change /veh CNN1 (11734310_a_at) / RFU VPS37D (11726825_at) / Fold change /veh VPS37D (11726825_at) / RFU C10orf10 (11716522_x_at) / Fold change /veh C10orf10 (11716522_x_at) / RFU KIR2DL2 /// KIR2DL4 /// KIR2DL5A /// KIR2DL5B /// KIR2DS1 /// KIR2DS2 /// KIR2DS3 /// KIR2DS4 /// KIR3DL3 /// KIR3DL3 /// KIR3DS1 (11738374_at) / Fold change /veh KIR2DL2 /// KIR2DL4 /// KIR2DL5A /// KIR2DL5B /// KIR2DS1 /// KIR2DS2 /// KIR2DS3 /// KIR2DS4 /// KIR3DL3 /// KIR3DL3 /// KIR3DS1 (11738374_at) / RFU C1QL1 (11718748_at) / Fold change /veh C1QL1 (11718748_at) / RFU TMPRSS4 (11747572_a_at) / Fold change /veh TMPRSS4 (11747572_a_at) / RFU HAMP (11756126_x_at) / Fold change /veh HAMP (11756126_x_at) / RFU RNFT2 (11725882_a_at) / Fold change /veh RNFT2 (11725882_a_at) / RFU NR4A2 (11747474_a_at) / Fold change /veh NR4A2 (11747474_a_at) / RFU ABCC12 (11746883_a_at) / Fold change /veh ABCC12 (11746883_a_at) / RFU TMEM136 (11760407_x_at) / Fold change /veh TMEM136 (11760407_x_at) / RFU CLDN22 /// WWC2 (11732394_at) / Fold change /veh CLDN22 /// WWC2 (11732394_at) / RFU HLA-DPB1 (11760878_x_at) / Fold change /veh HLA-DPB1 (11760878_x_at) / RFU SPINT1 (11716480_a_at) / Fold change /veh SPINT1 (11716480_a_at) / RFU GAP43 (11754022_s_at) / Fold change /veh GAP43 (11754022_s_at) / RFU A4GNT (11735810_at) / Fold change /veh A4GNT (11735810_at) / RFU PRB3 (11715151_x_at) / Fold change /veh PRB3 (11715151_x_at) / RFU TUBB4B (11761932_at) / Fold change /veh TUBB4B (11761932_at) / RFU CAPN14 (11732068_a_at) / Fold change /veh CAPN14 (11732068_a_at) / RFU TMCC2 (11721928_a_at) / Fold change /veh TMCC2 (11721928_a_at) / RFU IRGQ (11745062_a_at) / Fold change /veh IRGQ (11745062_a_at) / RFU FAM174B (11720279_a_at) / Fold change /veh FAM174B (11720279_a_at) / RFU TMPRSS4 (11748680_a_at) / Fold change /veh TMPRSS4 (11748680_a_at) / RFU FAM212B (11763350_a_at) / Fold change /veh FAM212B (11763350_a_at) / RFU PLEKHG5 (11743358_a_at) / Fold change /veh PLEKHG5 (11743358_a_at) / RFU ZSCAN30 (11745921_a_at) / Fold change /veh ZSCAN30 (11745921_a_at) / RFU CMKLR1 (11741424_a_at) / Fold change /veh CMKLR1 (11741424_a_at) / RFU LOC101060620 /// MAPK8IP1 (11723275_at) / Fold change /veh LOC101060620 /// MAPK8IP1 (11723275_at) / RFU SPTSSB (11747773_x_at) / Fold change /veh SPTSSB (11747773_x_at) / RFU PRSS12 (11739890_at) / Fold change /veh PRSS12 (11739890_at) / RFU BIN1 (11741810_x_at) / Fold change /veh BIN1 (11741810_x_at) / RFU WNT11 (11732464_a_at) / Fold change /veh WNT11 (11732464_a_at) / RFU C10orf10 (11716521_a_at) / Fold change /veh C10orf10 (11716521_a_at) / RFU C5orf56 (11738089_at) / Fold change /veh C5orf56 (11738089_at) / RFU CYB561 (11721691_x_at) / Fold change /veh CYB561 (11721691_x_at) / RFU ANKRD19P (11752326_a_at) / Fold change /veh ANKRD19P (11752326_a_at) / RFU OR2T12 /// OR2T33 /// OR2T8 (11738714_s_at) / Fold change /veh OR2T12 /// OR2T33 /// OR2T8 (11738714_s_at) / RFU VCAN (11748164_a_at) / Fold change /veh VCAN (11748164_a_at) / RFU JSRP1 (11732532_at) / Fold change /veh JSRP1 (11732532_at) / RFU KRTAP10-11 (11738290_x_at) / Fold change /veh KRTAP10-11 (11738290_x_at) / RFU MYO3A (11730013_a_at) / Fold change /veh MYO3A (11730013_a_at) / RFU EBF3 (11725865_a_at) / Fold change /veh EBF3 (11725865_a_at) / RFU CAMK2N1 (11719241_x_at) / Fold change /veh CAMK2N1 (11719241_x_at) / RFU C5orf56 (11738088_a_at) / Fold change /veh C5orf56 (11738088_a_at) / RFU OLFML3 (11715873_a_at) / Fold change /veh OLFML3 (11715873_a_at) / RFU LOC100653217 /// NTM (11731650_a_at) / Fold change /veh LOC100653217 /// NTM (11731650_a_at) / RFU MAPK11 (11762145_a_at) / Fold change /veh MAPK11 (11762145_a_at) / RFU FIZ1 (11724087_x_at) / Fold change /veh FIZ1 (11724087_x_at) / RFU OASL (11726364_x_at) / Fold change /veh OASL (11726364_x_at) / RFU SOX15 (11748057_x_at) / Fold change /veh SOX15 (11748057_x_at) / RFU CD79A (11719716_a_at) / Fold change /veh CD79A (11719716_a_at) / RFU HIST1H1D (11736915_at) / Fold change /veh HIST1H1D (11736915_at) / RFU CASKIN2 (11723855_a_at) / Fold change /veh CASKIN2 (11723855_a_at) / RFU LOC730098 (11760151_x_at) / Fold change /veh LOC730098 (11760151_x_at) / RFU OR4N2 (11742367_at) / Fold change /veh OR4N2 (11742367_at) / RFU PRRT2 (11749266_a_at) / Fold change /veh PRRT2 (11749266_a_at) / RFU SNX32 (11753110_a_at) / Fold change /veh SNX32 (11753110_a_at) / RFU CDHR5 (11726645_a_at) / Fold change /veh CDHR5 (11726645_a_at) / RFU RCAN1 (11760418_a_at) / Fold change /veh RCAN1 (11760418_a_at) / RFU FAM167A (11723789_a_at) / Fold change /veh FAM167A (11723789_a_at) / RFU FAM26E (11764081_at) / Fold change /veh FAM26E (11764081_at) / RFU ISYNA1 (11749810_s_at) / Fold change /veh ISYNA1 (11749810_s_at) / RFU ACY1 (11761880_at) / Fold change /veh ACY1 (11761880_at) / RFU 11764098_at / Fold change /veh 11764098_at / RFU SAMD14 (11745864_x_at) / Fold change /veh SAMD14 (11745864_x_at) / RFU NPB (11741838_a_at) / Fold change /veh NPB (11741838_a_at) / RFU TMPRSS6 (11731388_a_at) / Fold change /veh TMPRSS6 (11731388_a_at) / RFU KRTAP10-2 (11738614_at) / Fold change /veh KRTAP10-2 (11738614_at) / RFU ARHGAP8 /// PRR5-ARHGAP8 (11727945_x_at) / Fold change /veh ARHGAP8 /// PRR5-ARHGAP8 (11727945_x_at) / RFU KRTAP5-7 /// NADSYN1 (11734609_at) / Fold change /veh KRTAP5-7 /// NADSYN1 (11734609_at) / RFU RASL12 (11751679_a_at) / Fold change /veh RASL12 (11751679_a_at) / RFU CDKN2B (11736163_a_at) / Fold change /veh CDKN2B (11736163_a_at) / RFU PRF1 (11729649_at) / Fold change /veh PRF1 (11729649_at) / RFU, ZNF638 /// ZNF638-IT1 / Fold change vs veh, ZNF638 /// ZNF638-IT1 / RFU, PANK3 / Fold change vs veh, PANK3 / RFU, SH3YL1 / Fold change vs veh, SH3YL1 / RFU, ZEB2 / Fold change vs veh, ZEB2 / RFU, NRIP1 / Fold change vs veh, NRIP1 / RFU, PTTG1IP / Fold change vs veh, PTTG1IP / RFU, CAPN2 / Fold change vs veh, CAPN2 / RFU, MED14 / Fold change vs veh, MED14 / RFU, SNORA58 / Fold change vs veh, SNORA58 / RFU, C1orf63 / Fold change vs veh, C1orf63 / RFU, LRRFIP1 / Fold change vs veh, LRRFIP1 / RFU, NDUFAF7 / Fold change vs veh, NDUFAF7 / RFU, SLC12A2 / Fold change vs veh, SLC12A2 / RFU, IBTK / Fold change vs veh, IBTK / RFU, ESF1 / Fold change vs veh, ESF1 / Fold change vs veh, TMEM50B / RFU, TAOK1 / Fold change vs veh, TAOK1 / RFU, ACBD3 / Fold change vs veh, ACBD3 / RFU, TMA16 / Fold change vs veh, TMA16 / RFU, RWDD3 / Fold change vs veh, RWDD3 / RFU, BCAT1 / Fold change vs veh, BCAT1 / RFU, EDEM3 / Fold change vs veh, EDEM3 / RFU, TMEM33 / Fold change vs veh, TMEM33 / RFU, WDR75 / Fold change vs veh, WDR75 / RFU, AHCTF1 / Fold change vs veh, AHCTF1 / RFU, TFRC / Fold change vs veh, TFRC / RFU, ZDHHC17 / Fold change vs veh, ZDHHC17 / RFU, NOM1 / Fold change vs veh, NOM1 / RFU, ARL8B / Fold change vs veh, ARL8B / RFU, ZBTB11 / Fold change vs veh, ZBTB11 / RFU, TAMM41 / Fold change vs veh, TAMM41 / RFU, KIAA1704 /// LOC100996395 / Fold change vs veh, KIAA1704 /// LOC100996395 / RFU, ING1 / Fold change vs veh, ING1 / RFU, TRMT61B / Fold change vs veh, TRMT61B / RFU, FUBP3 / Fold change vs veh, FUBP3 / RFU, TP53 / Fold change vs veh, TP53 / RFU, TNKS2 / Fold change vs veh, TNKS2 / RFU, ZFP14 / Fold change vs veh, ZFP14 / RFU, ACTR2 / Fold change vs veh, ACTR2 / RFU, PPP3R1 / Fold change vs veh, PPP3R1 / RFU, PIK3R1 / Fold change vs veh, PIK3R1 / RFU, HNRNPA1 / Fold change vs veh, HNRNPA1 / RFU, RNF170 / Fold change vs veh, RNF170 / RFU, ZNF28 / Fold change vs veh, ZNF28 / RFU, RNGTT / Fold change vs veh, RNGTT / RFU, OGT / Fold change vs veh, OGT / RFU, BRD1 / Fold change vs veh, BRD1 / RFU, MARS / Fold change vs veh, MARS / RFU, ZNF655 / Fold change vs veh, ZNF655 / RFU, FAHD1 / Fold change vs veh, FAHD1 / RFU, BDP1 / Fold change vs veh, BDP1 / RFU, LRRCC1 / Fold change vs veh, LRRCC1 / RFU, ARID1A / Fold change vs veh, ARID1A / RFU, ZNF146 / Fold change vs veh, ZNF146 / RFU, ZNF330 / Fold change vs veh, ZNF330 / RFU, GPN3 / Fold change vs veh, GPN3 / RFU, C9orf123 / Fold change vs veh, C9orf123 / RFU, N4BP2L2 / Fold change vs veh, N4BP2L2 / RFU, ARFIP1 / Fold change vs veh, ARFIP1 / RFU, FAM179B / Fold change vs veh, FAM179B / RFU, BCL10 / Fold change vs veh, BCL10 / RFU, UHRF1BP1L / Fold change vs veh, UHRF1BP1L / RFU, BET1 / Fold change vs veh, BET1 / RFU, CNOT2 / Fold change vs veh, CNOT2 / RFU, ZNF268 / Fold change vs veh, ZNF268 / Fold change vs veh, ZNF507 / RFU, DGCR2 / Fold change vs veh, DGCR2 / RFU, WDSUB1 / Fold change vs veh, WDSUB1 / Fold change vs veh, HSP90B1 /// MIR3652 / RFU, ADSS / Fold change vs veh, ADSS / RFU, GK / Fold change vs veh, GK / RFU, ZNF148 / Fold change vs veh, ZNF148 / RFU, TAF9 / Fold change vs veh, TAF9 / RFU, SLC1A5 / Fold change vs veh, SLC1A5 / RFU, SLMO2 / Fold change vs veh, SLMO2 / RFU, ABCC4 / Fold change vs veh, ABCC4 / RFU, LOC101060439 /// RAP1B / Fold change vs veh, LOC101060439 /// RAP1B / RFU, RFX7 / Fold change vs veh, RFX7 / RFU, GTPBP10 / Fold change vs veh, GTPBP10 / RFU, CNEP1R1 / Fold change vs veh, CNEP1R1 / RFU, BIVM-ERCC5 /// ERCC5 / Fold change vs veh, BIVM-ERCC5 /// ERCC5 / RFU, ILF3 / Fold change vs veh, ILF3 / RFU 11762660_at / Fold change /veh 11762660_at / RFU VCAN (11757783_s_at) / Fold change /veh VCAN (11757783_s_at) / RFU DDX43 (11728927_at) / Fold change /veh DDX43 (11728927_at) / RFU KRT8 (11758188_x_at) / Fold change /veh KRT8 (11758188_x_at) / RFU NKD1 (11759106_at) / Fold change /veh NKD1 (11759106_at) / RFU SRD5A1 (11742802_a_at) / Fold change /veh SRD5A1 (11742802_a_at) / RFU TPSAB1 /// TPSB2 (11721975_s_at) / Fold change /veh TPSAB1 /// TPSB2 (11721975_s_at) / RFU GSTM3 (11746129_a_at) / Fold change /veh GSTM3 (11746129_a_at) / RFU IL23R (11737362_x_at) / Fold change /veh IL23R (11737362_x_at) / RFU TMEM51 (11727254_a_at) / Fold change /veh TMEM51 (11727254_a_at) / RFU PIWIL2 (11732686_x_at) / Fold change /veh PIWIL2 (11732686_x_at) / RFU ORM1 (11744905_x_at) / Fold change /veh ORM1 (11744905_x_at) / RFU CCDC152 (11743942_at) / Fold change /veh CCDC152 (11743942_at) / RFU ECM1 (11717891_a_at) / Fold change /veh ECM1 (11717891_a_at) / RFU IL23R (11748794_a_at) / Fold change /veh IL23R (11748794_a_at) / RFU TNFAIP8L3 (11732012_x_at) / Fold change /veh TNFAIP8L3 (11732012_x_at) / RFU MBOAT4 (11741988_at) / Fold change /veh MBOAT4 (11741988_at) / RFU 11764193_at / Fold change /veh 11764193_at / RFU TMEM53 (11763286_at) / Fold change /veh TMEM53 (11763286_at) / RFU MAGEB2 (11727129_at) / Fold change /veh MAGEB2 (11727129_at) / RFU TMEM200A (11744735_a_at) / Fold change /veh TMEM200A (11744735_a_at) / RFU CCDC152 (11751479_a_at) / Fold change /veh CCDC152 (11751479_a_at) / RFU FAM211A (11726209_a_at) / Fold change /veh FAM211A (11726209_a_at) / RFU RGS16 (11746705_a_at) / Fold change /veh RGS16 (11746705_a_at) / RFU VCAN (11755009_s_at) / Fold change /veh VCAN (11755009_s_at) / RFU RHOB (11743442_s_at) / Fold change /veh RHOB (11743442_s_at) / RFU RGS16 (11720943_a_at) / Fold change /veh RGS16 (11720943_a_at) / RFU RGS16 (11720944_at) / Fold change /veh RGS16 (11720944_at) / RFU, VPS4B / Fold change vs veh, VPS4B / RFU, CREB1 / Fold change vs veh, CREB1 / RFU, DNAJC13 / Fold change vs veh, DNAJC13 / RFU, GNAQ / Fold change vs veh, GNAQ / RFU, CDK5R1 / Fold change vs veh, CDK5R1 / RFU, ZRANB3 / Fold change vs veh, ZRANB3 / RFU, CUL4A / Fold change vs veh, CUL4A / RFU, CCNY / Fold change vs veh, CCNY / RFU, UFL1 / Fold change vs veh, UFL1 / RFU, COG3 / Fold change vs veh, COG3 / RFU, DIAPH2 / Fold change vs veh, DIAPH2 / RFU, SKA2 / Fold change vs veh, SKA2 / RFU, AFF3 / Fold change vs veh, AFF3 / RFU, LMF1 / Fold change vs veh, LMF1 / RFU, IPO11 / Fold change vs veh, IPO11 / RFU, DFFB / Fold change vs veh, DFFB / RFU, FOXP1 / Fold change vs veh, FOXP1 / RFU, CARD8 / Fold change vs veh, CARD8 / RFU, STRN3 / Fold change vs veh, STRN3 / RFU, ADK / Fold change vs veh, ADK / RFU, RASSF2 / Fold change vs veh, RASSF2 / RFU, WIPF1 / Fold change vs veh, WIPF1 / RFU, LARP1B / Fold change vs veh, LARP1B / RFU, RASA1 / Fold change vs veh, RASA1 / RFU, RB1 / Fold change vs veh, RB1 / RFU, PPFIA1 / Fold change vs veh, PPFIA1 / RFU, MAT2A / Fold change vs veh, MAT2A / RFU, CCT5 / Fold change vs veh, CCT5 / RFU, WDR92 / Fold change vs veh, WDR92 / RFU, CUX1 / Fold change vs veh, CUX1 / RFU, TTC7A / Fold change vs veh, TTC7A / RFU, TMEM135 / Fold change vs veh, TMEM135 / RFU, DEPTOR / Fold change vs veh, DEPTOR / RFU, CPM / Fold change vs veh, CPM / RFU, DNAJB6 / Fold change vs veh, DNAJB6 / RFU, CACNA2D3 / Fold change vs veh, CACNA2D3 / RFU, DTX4 / Fold change vs veh, DTX4 / RFU, TFCP2 / Fold change vs veh, TFCP2 / RFU, GMCL1 /// GMCL1P1 / Fold change vs veh, GMCL1 /// GMCL1P1 / RFU, AEBP2 / Fold change vs veh, AEBP2 / RFU, SNHG1 /// SNORD22 /// SNORD25 /// SNORD26 /// SNORD27 /// SNORD28 /// SNORD29 /// SNORD31 / Fold change vs veh, SNHG1 /// SNORD22 /// SNORD25 /// SNORD26 /// SNORD27 /// SNORD28 /// SNORD29 /// SNORD31 / Fold change (Aza/veh), C12orf56 (ProbeSet 11735607_a_at) / Fold change (ACY-1035/veh), C12orf56 (ProbeSet 11735607_a_at) / Fold change (Aza/veh), FGFR1OP (ProbeSet 11751329_s_at) / Fold change (ACY-1035/veh), FGFR1OP (ProbeSet 11751329_s_at) / Fold change (Aza/veh), VPS36 (ProbeSet 11739960_a_at) / Fold change (ACY-1035/veh), VPS36 (ProbeSet 11739960_a_at) / RFU SYPL1 (11715823_x_at) / Fold change /veh SYPL1 (11715823_x_at) / RFU IGFBP7 (11715501_s_at) / Fold change /veh IGFBP7 (11715501_s_at) / RFU REEP3 (11722064_at) / Fold change /veh REEP3 (11722064_at) / RFU IGLL1 (11728026_x_at) / Fold change /veh IGLL1 (11728026_x_at): dose or concentration left out as unconfirmed.

This note sets out measurements from publication PMC5218480 (PLoS ONE, 2017).

For `Nc1ccc(-c2cccs2)cc1NC(=O)c1ccc2c(c1)cc(C1CC1)n2CCN1CCOCC1` [ACY-1035], the “RFU SNX32 (11753110_a_at)” value was found to be 6.46 RFU.
